Results reported in patent US10357493B2, “Metalloenzyme inhibitor compounds” (Selenity Therapeutics (Bermuda), Ltd., priority 2017, dated 2019).
Where two headings read alike, the source gives them in different places.

Assays:
HDAC3/NCOR2 = HDAC3/NCOR2 (Homo sapiens (Human), UniProt O15379); assay: HDAC3 enzymatic assay; assay type: biochemical; settings: selectivity profile; read-out: HDAC Enzyme IC50, HDAC 3
Experimental: (§1) All enzymatic reactions were conducted in duplicate at room temperature for 17 hours in a 50 μl mixture containing HDAC assay buffer (50 mM Tris-HCl, pH 7.4, 137 mM NaCl, 2.7 mM KCl, 0.05% Tween 20, 5 μg BSA), an HDAC substrate, an HDAC enzyme, and a test compound. Compound dilution was prepared ten-fold higher than the final concentration of the compounds with 10% DMSO in HDAC assay buffer and 5 μl of the dilution was added to a 50 μl reaction so that the final concentration of DMSO is 1% in all of reactions. After enzymatic reactions, 50 μl of HDAC Developer was added to each well and the plate was incubated at room temperature for an additional 20 minutes. Fluorescence intensity was measured at an excitation of 360 nm and an emission of 460 nm using a Tecan Infinite M1000 or Biotek Synergy microplate reader.
(§2) The fluorescent intensity data were analyzed using the computer software, Graphpad Prism. In the absence of the compound, the fluorescent intensity (Ft) in each data set was defined as 100% activity. In the absence of HDAC, the fluorescent intensity (Fb) in each data set was defined as 0% activity. The percent activity in the presence of each compound was calculated according to the following equation: % activity=(F−Fb)/(Ft−Fb), where F=the fluorescent intensity in the presence of the compound.
(§3) The values of % activity versus a series of compound concentrations were then plotted using non-linear regression analysis of Sigmoidal dose-response curve generated with the equation Y=B+(T−B)/1+10((Log EC50−X)×Hill Slope), where Y=percent activity, B=minimum percent activity, T=maximum percent activity, X=logarithm of compound and Hill Slope=slope factor or Hill coefficient. The IC50 value was determined by the concentration causing a half-maximal percent activity.
(§4) HDAC1 enzymatic assays contained 0.5 ng HDAC1 and 10 uM of HDAC substrate. HDAC2 enzymatic assays contained 0.5 ng HDAC2 and 10 uM of HDAC substrate. HDAC3 enzymatic assays contained 0.4 ng HDAC3/NCOR2 and 10 uM of HDAC substrate. HDAC4 enzymatic assays contained 0.02 ng HDAC4 and 2 uM of HDAC substrate. HDAC5 enzymatic assays contained 0.5 ng HDAC5 and 2 uM of HDAC substrate. HDAC6 enzymatic assays contained 2 ng HDAC6 and 10 uM of HDAC substrate. HDAC7 enzymatic assays contained 0.05 ng HDAC7 and 2 uM of HDAC substrate. HDAC8 enzymatic assays contained 5 ng HDAC8 and 2 uM of HDAC substrate. HDAC9 enzymatic assays contained 1 ng HDAC9 and 2 uM of HDAC substrate. HDAC10 enzymatic assays contained 75 ng HDAC10 and 10 uM of HDAC substrate. HDAC11 enzymatic assays contained 5 ng HDAC11 and 2 uM of HDAC substrate.

HDAC4 = HDAC4 (Homo sapiens (Human), UniProt P56524); assay: HDAC4 enzymatic assay; assay type: biochemical; settings: selectivity profile; read-out: HDAC Enzyme IC50, HDAC 4
Experimental: as §1, §2, §3, §4

HDAC8 = HDAC8 (Homo sapiens (Human), UniProt Q9BY41); assay: HDAC8 enzymatic assay; assay type: biochemical; settings: selectivity profile; read-out: HDAC Enzyme IC50, HDAC 8
Experimental: as §1, §2, §3, §4

HDAC1 = HDAC1 (Homo sapiens (Human), UniProt Q13547); assay: HDAC1 enzymatic assay; assay type: biochemical
How it was run: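 HDAC1 activity was measured in duplicate 50 μl reactions containing 0.5 ng HDAC1, 10 uM of HDAC substrate, and test compound in buffer (50 mM Tris-HCl, pH 7.4, 137 mM NaCl, 2.7 mM KCl, 0.05% Tween 20, 5 μg BSA) with 1% DMSO, incubated 17 hours at room temperature. HDAC Developer was then added for 20 minutes and fluorescence read at 360/460 nm.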

HDAC9 = HDAC9 (Homo sapiens (Human), UniProt Q9UKV0); assay: HDAC9 enzymatic assay; assay type: biochemical; settings: selectivity profile; read-out: HDAC Enzyme IC50, HDAC 9
Experimental: as §1, §2, §3, §4

HDAC6 = HDAC6 (Homo sapiens (Human), UniProt Q9UBN7); assay: HDAC6 enzymatic assay; assay type: biochemical
How it was run: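 Human HDAC6 activity was measured in duplicate 50 μl reactions holding 2 ng HDAC6, 10 uM of HDAC substrate and test compound in HDAC assay buffer (50 mM Tris-HCl, pH 7.4, 137 mM NaCl, 2.7 mM KCl, 0.05% Tween 20, 5 μg BSA) with 1% DMSO, for 17 hours at room temperature. HDAC Developer was added for 20 minutes before reading fluorescence at 360/460 nm.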

HDAC2 = HDAC2 (Homo sapiens (Human), UniProt Q92769); assay: HDAC2 enzymatic assay; assay type: biochemical; settings: selectivity profile; read-out: HDAC Enzyme IC50, HDAC 2
Experimental: as §1, §2, §3, §4

HDAC10 = HDAC10 (Homo sapiens (Human), UniProt Q969S8); assay: HDAC10 enzymatic assay; assay type: biochemical; settings: selectivity profile; read-out: HDAC Enzyme IC50, HDAC 10
Experimental: as §1, §2, §3, §4

HDAC5 = HDAC5 (Homo sapiens (Human), UniProt Q9UQL6); assay: HDAC5 enzymatic assay; assay type: biochemical; settings: selectivity profile; read-out: HDAC Enzyme IC50, HDAC 5
Experimental: as §1, §2, §3, §4

HDAC11 = HDAC11 (Homo sapiens (Human), UniProt Q96DB2); assay: HDAC11 enzymatic assay; assay type: biochemical; settings: selectivity profile; read-out: HDAC Enzyme IC50, HDAC 11
Experimental: as §1, §2, §3, §4

HDAC7 = HDAC7 (Homo sapiens (Human), UniProt Q8WUI4); assay: HDAC7 enzymatic assay; assay type: biochemical; settings: selectivity profile; read-out: HDAC Enzyme IC50, HDAC 7
Experimental: as §1, §2, §3, §4

[1] = Mouse Pharmacokinetics, oral single dose; assay type: in vivo, male Swiss Albino mice; settings: male, Swiss Albino, plasma, 5 mg/kg, formulation by footnote: a 20% CremEL in H20, b 1% CMC in water, c 2% DMSO, 0.2% Tween80, 97.8% of 1% CMC
Experimental: Example 187: Mouse Pharmacokinetics
A dose of 5 mg/kg in an appropriate formulation was administered by oral gavage to fasted male Swiss Albino mice (n=3), and the plasma was collected at 0, 0.25, 0.5, 1, 2, 4, 8, and 24 h. Plasma levels were measured by HPLC/MS/MS methods and the pharmacokinetic parameters were determined for individual animals from plasma concentration-time data using noncompartmental model 200-202 in Phoenix WinNonlin 6.3.

[2] = selectivity profile, read-out: HDAC Enzyme IC50, HDAC 1
[3] = selectivity profile, read-out: HDAC Enzyme IC50, HDAC 6

HDAC8, sequence (Q9BY41 whole entry, species assumed): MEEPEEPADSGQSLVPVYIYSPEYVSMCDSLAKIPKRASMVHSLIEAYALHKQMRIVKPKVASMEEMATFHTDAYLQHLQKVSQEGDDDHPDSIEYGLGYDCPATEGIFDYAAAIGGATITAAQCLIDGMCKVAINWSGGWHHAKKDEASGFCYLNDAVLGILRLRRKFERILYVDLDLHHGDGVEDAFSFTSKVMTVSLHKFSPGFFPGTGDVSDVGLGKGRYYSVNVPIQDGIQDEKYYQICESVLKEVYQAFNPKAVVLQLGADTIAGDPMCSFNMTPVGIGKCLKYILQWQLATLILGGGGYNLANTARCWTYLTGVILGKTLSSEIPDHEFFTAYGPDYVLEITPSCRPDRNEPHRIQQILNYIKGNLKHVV
HDAC9, sequence (Q9UKV0 whole entry, species assumed): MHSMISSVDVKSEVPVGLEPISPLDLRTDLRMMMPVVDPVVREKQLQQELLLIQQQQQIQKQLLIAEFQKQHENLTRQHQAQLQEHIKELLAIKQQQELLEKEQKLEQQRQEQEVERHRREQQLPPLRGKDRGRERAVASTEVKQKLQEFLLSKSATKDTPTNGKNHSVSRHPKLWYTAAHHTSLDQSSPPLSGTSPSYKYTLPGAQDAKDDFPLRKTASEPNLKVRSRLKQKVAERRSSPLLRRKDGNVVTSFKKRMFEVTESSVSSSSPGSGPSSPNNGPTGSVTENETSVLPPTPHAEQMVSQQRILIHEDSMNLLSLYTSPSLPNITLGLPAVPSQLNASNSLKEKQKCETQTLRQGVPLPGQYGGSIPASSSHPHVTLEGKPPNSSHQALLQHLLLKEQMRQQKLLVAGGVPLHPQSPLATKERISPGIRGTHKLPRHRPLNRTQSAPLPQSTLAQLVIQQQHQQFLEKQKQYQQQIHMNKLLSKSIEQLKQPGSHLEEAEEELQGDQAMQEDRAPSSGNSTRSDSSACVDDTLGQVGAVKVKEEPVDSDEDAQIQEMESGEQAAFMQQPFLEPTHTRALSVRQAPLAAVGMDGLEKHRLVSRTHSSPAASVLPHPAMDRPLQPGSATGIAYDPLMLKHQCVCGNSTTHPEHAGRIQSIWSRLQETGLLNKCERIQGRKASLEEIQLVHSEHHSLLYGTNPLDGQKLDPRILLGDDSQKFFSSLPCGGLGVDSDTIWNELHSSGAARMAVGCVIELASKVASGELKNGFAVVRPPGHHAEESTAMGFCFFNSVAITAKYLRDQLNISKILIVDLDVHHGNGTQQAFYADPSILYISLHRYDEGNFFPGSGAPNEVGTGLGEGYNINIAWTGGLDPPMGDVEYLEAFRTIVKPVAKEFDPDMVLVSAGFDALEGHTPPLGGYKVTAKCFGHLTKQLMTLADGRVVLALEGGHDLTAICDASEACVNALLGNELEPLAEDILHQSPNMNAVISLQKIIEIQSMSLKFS
HDAC5, sequence (Q9UQL6 whole entry, species assumed): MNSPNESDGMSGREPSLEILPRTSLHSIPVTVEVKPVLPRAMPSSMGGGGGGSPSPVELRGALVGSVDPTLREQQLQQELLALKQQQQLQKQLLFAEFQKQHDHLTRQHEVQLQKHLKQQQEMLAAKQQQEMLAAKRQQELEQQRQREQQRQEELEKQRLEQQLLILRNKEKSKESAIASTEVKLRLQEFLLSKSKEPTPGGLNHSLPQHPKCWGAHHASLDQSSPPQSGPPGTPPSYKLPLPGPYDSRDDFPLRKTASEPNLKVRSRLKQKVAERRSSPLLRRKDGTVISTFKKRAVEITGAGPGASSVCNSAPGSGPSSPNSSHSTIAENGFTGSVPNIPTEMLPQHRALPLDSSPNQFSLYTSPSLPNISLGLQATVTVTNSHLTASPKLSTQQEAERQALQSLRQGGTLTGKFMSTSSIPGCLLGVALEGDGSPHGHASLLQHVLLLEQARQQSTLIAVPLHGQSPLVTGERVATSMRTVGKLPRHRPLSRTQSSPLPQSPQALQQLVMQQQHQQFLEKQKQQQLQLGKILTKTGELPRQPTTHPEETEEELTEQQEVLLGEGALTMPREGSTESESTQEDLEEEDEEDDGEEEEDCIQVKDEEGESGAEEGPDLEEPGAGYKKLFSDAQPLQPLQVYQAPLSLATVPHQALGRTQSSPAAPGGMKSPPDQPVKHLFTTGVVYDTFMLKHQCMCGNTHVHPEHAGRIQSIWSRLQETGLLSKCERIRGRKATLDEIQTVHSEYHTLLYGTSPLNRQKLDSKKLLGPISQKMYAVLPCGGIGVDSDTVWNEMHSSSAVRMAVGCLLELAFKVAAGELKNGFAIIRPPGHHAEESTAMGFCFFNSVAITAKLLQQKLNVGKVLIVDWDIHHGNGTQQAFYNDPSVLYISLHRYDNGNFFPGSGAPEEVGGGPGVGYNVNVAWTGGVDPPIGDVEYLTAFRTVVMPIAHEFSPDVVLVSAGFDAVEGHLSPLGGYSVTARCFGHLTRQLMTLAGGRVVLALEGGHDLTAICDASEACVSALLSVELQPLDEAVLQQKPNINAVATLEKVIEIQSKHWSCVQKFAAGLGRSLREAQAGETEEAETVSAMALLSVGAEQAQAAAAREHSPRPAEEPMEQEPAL
HDAC6, sequence (Q9UBN7 whole entry): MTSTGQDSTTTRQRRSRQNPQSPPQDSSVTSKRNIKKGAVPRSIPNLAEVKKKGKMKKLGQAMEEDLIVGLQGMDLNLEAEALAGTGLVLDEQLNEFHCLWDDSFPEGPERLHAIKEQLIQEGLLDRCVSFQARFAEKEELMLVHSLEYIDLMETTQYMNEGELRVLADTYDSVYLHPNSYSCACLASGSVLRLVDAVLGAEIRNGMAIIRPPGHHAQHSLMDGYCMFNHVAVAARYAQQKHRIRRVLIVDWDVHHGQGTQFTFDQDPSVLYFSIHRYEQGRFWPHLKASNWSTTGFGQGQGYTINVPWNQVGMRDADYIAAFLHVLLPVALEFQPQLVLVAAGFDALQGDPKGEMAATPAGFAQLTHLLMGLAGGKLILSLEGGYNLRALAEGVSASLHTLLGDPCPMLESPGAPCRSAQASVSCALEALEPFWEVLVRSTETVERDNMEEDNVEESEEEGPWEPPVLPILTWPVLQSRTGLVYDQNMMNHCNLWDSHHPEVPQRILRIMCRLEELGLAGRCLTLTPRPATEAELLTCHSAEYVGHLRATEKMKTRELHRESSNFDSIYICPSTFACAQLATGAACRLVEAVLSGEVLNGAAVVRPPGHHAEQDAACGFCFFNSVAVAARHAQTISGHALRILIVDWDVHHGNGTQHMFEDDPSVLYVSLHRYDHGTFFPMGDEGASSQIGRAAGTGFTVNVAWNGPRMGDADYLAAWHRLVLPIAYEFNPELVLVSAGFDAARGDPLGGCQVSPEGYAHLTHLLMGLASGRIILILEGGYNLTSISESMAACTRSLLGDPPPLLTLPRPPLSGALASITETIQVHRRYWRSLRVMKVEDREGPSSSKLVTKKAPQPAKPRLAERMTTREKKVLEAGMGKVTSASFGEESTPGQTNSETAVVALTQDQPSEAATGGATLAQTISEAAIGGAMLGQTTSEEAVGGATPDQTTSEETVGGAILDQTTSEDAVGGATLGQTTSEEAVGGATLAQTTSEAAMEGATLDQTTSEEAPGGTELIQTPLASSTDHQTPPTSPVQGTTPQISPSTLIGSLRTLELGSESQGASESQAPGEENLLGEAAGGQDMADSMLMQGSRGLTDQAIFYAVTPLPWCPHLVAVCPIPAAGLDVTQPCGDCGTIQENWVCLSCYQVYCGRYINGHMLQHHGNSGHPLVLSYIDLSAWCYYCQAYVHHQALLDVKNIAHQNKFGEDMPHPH
HDAC1, sequence (Q13547 whole entry): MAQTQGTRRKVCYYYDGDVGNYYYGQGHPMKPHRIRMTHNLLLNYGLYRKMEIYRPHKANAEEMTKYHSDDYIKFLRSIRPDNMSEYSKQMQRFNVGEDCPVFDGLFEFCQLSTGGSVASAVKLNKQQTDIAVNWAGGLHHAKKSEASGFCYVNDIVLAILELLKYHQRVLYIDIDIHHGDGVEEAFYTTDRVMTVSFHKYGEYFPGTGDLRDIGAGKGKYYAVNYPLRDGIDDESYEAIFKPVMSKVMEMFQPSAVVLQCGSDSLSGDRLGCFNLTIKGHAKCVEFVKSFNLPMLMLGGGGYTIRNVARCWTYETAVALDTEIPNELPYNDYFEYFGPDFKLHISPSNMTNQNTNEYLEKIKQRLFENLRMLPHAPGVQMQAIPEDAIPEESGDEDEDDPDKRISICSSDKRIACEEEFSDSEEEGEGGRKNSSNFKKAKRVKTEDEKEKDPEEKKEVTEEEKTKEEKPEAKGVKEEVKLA
HDAC11, sequence (Q96DB2 whole entry, species assumed): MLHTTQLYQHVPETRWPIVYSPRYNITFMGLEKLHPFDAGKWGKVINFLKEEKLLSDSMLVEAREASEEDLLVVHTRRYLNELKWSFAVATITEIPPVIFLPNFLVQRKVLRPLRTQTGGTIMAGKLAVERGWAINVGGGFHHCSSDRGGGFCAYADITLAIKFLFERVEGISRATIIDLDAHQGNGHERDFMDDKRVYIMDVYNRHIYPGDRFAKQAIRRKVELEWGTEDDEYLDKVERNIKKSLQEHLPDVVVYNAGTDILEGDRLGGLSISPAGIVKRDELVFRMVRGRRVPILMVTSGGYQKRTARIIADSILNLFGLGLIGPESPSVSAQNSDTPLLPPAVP
HDAC2, sequence (Q92769 whole entry, species assumed): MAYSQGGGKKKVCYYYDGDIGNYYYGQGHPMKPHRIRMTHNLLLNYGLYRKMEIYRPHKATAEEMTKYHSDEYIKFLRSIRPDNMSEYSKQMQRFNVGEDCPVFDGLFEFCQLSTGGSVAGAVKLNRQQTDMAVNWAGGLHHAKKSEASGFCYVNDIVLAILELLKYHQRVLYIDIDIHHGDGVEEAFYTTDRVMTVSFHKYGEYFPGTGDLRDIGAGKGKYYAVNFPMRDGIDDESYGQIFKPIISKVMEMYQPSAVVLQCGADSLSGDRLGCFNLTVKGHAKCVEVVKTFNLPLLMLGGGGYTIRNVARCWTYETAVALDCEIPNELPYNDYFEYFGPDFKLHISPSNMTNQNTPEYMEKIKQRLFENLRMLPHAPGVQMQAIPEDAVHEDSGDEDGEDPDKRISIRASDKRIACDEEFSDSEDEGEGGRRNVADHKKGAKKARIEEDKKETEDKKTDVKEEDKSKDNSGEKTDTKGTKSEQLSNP

Row | Structure (SMILES) | IC50 (HDAC3/NCOR2) [µM] | IC50 (HDAC4) [µM] | IC50 (HDAC8) [µM] | IC50 (HDAC1; read-out: Human HDAC1 IC50) [µM] | IC50 (HDAC1; [2]) [µM] | IC50 (HDAC9) [µM] | IC50 (HDAC6; read-out: Human HDAC6 IC50) [µM] | IC50 (HDAC6; [3]) [µM] | IC50 (HDAC2) [µM] | IC50 (HDAC10) [µM] | IC50 (HDAC5) [µM] | IC50 (HDAC11) [µM] | IC50 (HDAC7) [µM] | Cmax [1] [ng/mL] | half-life [1] [h]
1 | CS(=O)(=O)CC(Nc1ncc(-c2nnc(C(F)F)o2)cn1)c1ccc(F)cc1 (single isomer, unassigned) [161(+), 5-(5-(difluoromethyl)-1,3,4-oxadiazol-2-yl)-N-(1-(4-fluorophenyl)-2-(methylsulfonyl)ethyl)pyrimidin-2-amine] | > 30 | > 30 | > 30 | > 30 | > 30 | > 30 | 0.043 | 0.043 | > 30 | > 30 | > 30 | > 30 | > 30 |  | 
2 | O=C(NCC(Nc1ncc(-c2nnc(C(F)F)o2)cn1)c1ccc(F)cc1)C1CC1 (single isomer, unassigned) [168(+), N-(2-((5-(5-(difluoromethyl)-1,3,4-oxadiazol-2-yl)pyrimidin-2-yl)amino)-2-(4-fluorophenyl)ethyl)cyclopropanecarboxamide] | > 30 | 13.8 | > 30 | > 30 | > 30 | > 30 | 0.029 | 0.029 | > 30 | > 30 | > 30 | > 30 | 24.4 |  | 
3 | CS(=O)(=O)NCC(Nc1ncc(-c2nnc(C(F)F)o2)cn1)c1ccc(Cl)cc1 (single isomer, unassigned) [173(+), N-(2-(4-chlorophenyl)-2-((5-(5-(difluoromethyl)-1,3,4-oxadiazol-2-yl)pyrimidin-2-yl)amino)ethyl)methanesulfonamide] |  |  |  | > 30 |  |  | 0.024 |  |  |  |  |  |  | 2820 | 5.6
4 | O=S(=O)(NCC(Nc1ncc(-c2nnc(C(F)F)o2)cn1)c1ccc(F)cc1F)C1CC1 (stereo not drawn) [142(+), N-(2-((5-(5-(difluoromethyl)-1,3,4-oxadiazol-2-yl)pyrimidin-2-yl)amino)-2-(2,4-difluorophenyl)ethyl)cyclopropanesulfonamide] |  |  |  | > 30 |  |  | 0.035 |  |  |  |  |  |  | 2530 | 4.1
5 | O=S(=O)(NCC(Nc1ncc(-c2nnc(C(F)F)o2)cn1)c1ccc(OC(F)F)cc1F)C1CC1 (stereo not drawn) [150(+), N-(2-(4-(difluoromethoxy)-2-fluorophenyl)-2-((5-(5-(difluoromethyl)-1,3,4-oxadiazol-2-yl)pyrimidin-2-yl)amino)ethyl)cyclopropanesulfonamide] |  |  |  | > 30 |  |  | 0.023 |  |  |  |  |  |  | 3390 | 9.3
6 | FC(F)c1nnc(-c2cnc(NC3(c4ccccc4)CC3)nc2)o1 [Example 4, 5-(5-(difluoromethyl)-1,3,4-oxadiazol-2-yl)-N-(1-phenylcyclopropyl)pyrimidin-2-amine] | > 30 | > 30 | > 30 | > 30 | > 30 | > 30 | 0.023 | 0.023 | > 30 | > 30 | > 30 | > 30 | > 30 |  | 
7 | Fc1ccc(C2(Nc3ncc(-c4nnc(C(F)F)o4)cn3)CC2)cc1 [Example 5, 5-(5-(difluoromethyl)-1,3,4-oxadiazol-2-yl)-N-(1-(4-fluorophenyl)cyclopropyl)pyrimidin-2-amine] | > 30 | > 30 | > 30 | > 100 | > 100 | > 30 | 0.034 | 0.034 | > 30 | > 30 | > 30 | > 30 | > 30 |  | 
8 | CC(C)(Nc1ncc(-c2nnc(C(F)F)o2)cn1)c1ccc(F)cc1 [Example 9, 5-(5-(difluoromethyl)-1,3,4-oxadiazol-2-yl)-N-(2-(4-fluorophenyl)propan-2-yl)pyrimidin-2-amine] | > 30 | > 30 | > 30 | > 30 | > 30 | > 30 | 0.038 | 0.038 | > 30 | > 30 | > 30 | > 30 | > 30 |  | 
9 | Fc1cccc(F)c1C1(Nc2ncc(-c3nnc(C(F)F)o3)cn2)CC1 [Example 11, 5-(5-(difluoromethyl)-1,3,4-oxadiazol-2-yl)-N-(1-(2,6-difluorophenyl)cyclopropyl)pyrimidin-2-amine] | > 30 | > 30 | > 30 | > 100 | > 100 | > 30 | 0.006 | 0.006 | > 30 | > 30 | > 30 | > 30 | > 30 |  | 
10 | CCS(=O)(=O)NCC(Nc1ncc(-c2nnc(C(F)F)o2)cn1)c1ccc(F)cc1 (centres unmarked) [Example 108, N-(2-((5-(5-(difluoromethyl)-1,3,4-oxadiazol-2-yl)pyrimidin-2-yl)amino)-2-(4-fluorophenyl)ethyl)ethanesulfonamide] |  |  |  | > 30 |  |  | 0.027 |  |  |  |  |  |  | 2120 | 2.3
11 | CC(C)S(=O)(=O)NCC(Nc1ncc(-c2nnc(C(F)F)o2)cn1)c1ccc(F)cc1 (centres unmarked) [Example 109, N-(2-((5-(5-(difluoromethyl)-1,3,4-oxadiazol-2-yl)pyrimidin-2-yl)amino)-2-(4-fluorophenyl)ethyl)propane-2-sulfonamide] |  |  |  | > 30 |  |  | 0.037 |  |  |  |  |  |  | 678 | 3.4
